“And” between values parts separate entries of the source, which are not always exact repeats. Equal values may be shown once. Read-outs that look alike come from different tables or passages of the source. Marks after values point to notes of the source that are not given here.
What was measured:
[1] = cited from earlier work
clinical = details: female, human, in vivo
HIV-1 [2] = test: Maternal plasma HIV-1 RNA; type: in vivo, human; details: rilpivirine with combination antiretrovirals
[3] = Maternal safety, pregnancy and infant outcomes; type: in vivo, human
[4] = Stability in stored plasma; type: physicochemical; details: plasma stored at −70°C
HIV-1 [5] = details: cited from earlier work
[6] = cited from earlier work; remark: listed apart in the source
[7] = cited from earlier work; remark: listed apart in the source
[8] = test system: cytochrome P450 3A4 (CYP 3A4); details: cited from earlier work
[9] = cited from earlier work; remark: listed apart in the source
[10] = for AUC24 geometric mean (90% CI) ratio: within-subject; for Tmax: mode (range); for Vd/F: Vd/F (apparent volume of distribution); for AUC: one subject on concomitant darunavir/ritonavir
[11] = 25 mg once daily, postpartum, median (range)
[12] = 25 mg once daily, second trimester, median (range)
[13] = 25 mg once daily, third trimester, median (range)
[14] = Second Trimester/Postpartum, n = 15
[15] = Second Trimester/Third Trimester, n = 15
[16] = Third Trimester/Postpartum, n = 28
[17] = female, human, plasma, oral, 25 mg, 25 mg once daily, second trimester, median (range)

## CC(C)CN(C[C@@H](OP(=O)(O)O)[C@H](Cc1ccccc1)NC(=O)O[C@H]1CCOC1)S(=O)(=O)c1ccc(N)cc1 [fosamprenavir]
[1]; in vivo
  AUC during pregnancy compared to postpartum: significant decreases

## Cc1cc(/C=C/C#N)cc(C)c1Nc1ccnc(Nc2ccc(C#N)cc2)n1 [Rilpivirine]
clinical
  Kp: 0.55
  Maternal plasma rilpivirine concentration at delivery, median (range): 103.3 (<10 to 273.4) ng/mL
  Umbilical cord blood rilpivirine concentration at delivery, median (range): 53.78 (<10 to 219.7) ng/mL
HIV-1 [2]
  HIV-1 RNA at 2nd trimester, median (range): < 40 (<20 – 2770) copies/mL
  HIV-1 RNA at 3rd trimester, median (range): < 20 (<20 – 48700) copies/mL
  HIV-1 RNA at Delivery, median (range): < 20 (<16 – 48700) copies/mL
[3]; at 32, 35, and 36 weeks, N of 30
  Number of preterm deliveries: 3 (10%)
[3]; in vivo
  Gestational age at delivery, median (range): 38.9 (32.3 – 41.4) weeks
  Infant Birth weight, median (range): 3095 (1570 – 4570) g
[3]; pregnant and postpartum women, 25 mg once daily
  Tolerability: well tolerated
[4]
  Stability in plasma: 2 years
HIV-1 [5]
  median EC50: 0.27 ng/mL
  median EC90: 0.66 ng/mL
  protein binding-adjusted EC50: 5.0 ng/mL
[6]
  Bound to protein: 99.7%
[7]; one person
  Cord blood to maternal plasma ratio: 0.74
[7]; two women, one value each
  Reduction in exposure during pregnancy compared to postpartum: 30% and 43%
[8]
  Substrate of cytochrome P450 3A4: substrate
[9]; human, in vivo
  Coefficient of variation (CV) for AUC: 38%
[9]; non-pregnant adults
  10th percentile rilpivirine AUC: 880 ng·h/mL
[10]; [11]
  C0 (pre-dose concentration): 69 (<10 – 285) ng/mL
  C24 (24 hour post-dose concentration): 81 (<10 – 299) ng/mL
  Cmin (minimum observed concentration): 58 (<10 – 200) ng/mL
[10]; [12]
  C0 (pre-dose concentration): 98(31 – 216) ^‡ ng/mL
  C24 (24 hour post-dose concentration): 63(37 – 225) ^* ng/mL
  Cmin (minimum observed concentration): 65(29 – 178) ng/mL
[10]; [13]
  C0 (pre-dose concentration): 56(<10 – 210) ng/mL
  C24 (24 hour post-dose concentration): 56(<10 – 181) ^† ng/mL
  Cmin (minimum observed concentration): 51(<10 – 136) ng/mL
[10]; 2nd trimester
  Coefficient of variation (CV) for Cmax: 53%
  Coefficient of variation (CV) for Cmin: 55%
[10]; 2nd trimester, between-subject
  Coefficient of variation (CV) for AUC: 186%
[10]; 3rd trimester
  Coefficient of variation (CV) for AUC: 194%
  Coefficient of variation (CV) for Cmax: 212%
  Coefficient of variation (CV) for Cmin: 154%
[10]; 14 visits with detectable HIV-1 RNA
  Minimum plasma concentration (Cmin), median (range): 30 (<10 – 93) ng/mL and 30 ng/mL
[10]; 62 visits with undetectable HIV-1 RNA
  Minimum plasma concentration (Cmin), median (range): 63 (15 – 199) ng/mL and 63 ng/mL
[10]; [14]
  C0 geometric mean (90% CI) ratio: 0.91 (0.61 – 1.38)
  C24 geometric mean (90% CI) ratio: 0.70 (0.55 – 0.90)
  CL/F geometric mean (90% CI) ratio: 1.33 (1.04 – 1.70)
  Cmax geometric mean (90% CI) ratio: 0.84 (0.69 – 1.02)
  Cmin geometric mean (90% CI) ratio: 0.88 (0.63 – 1.21)
  Vd/F geometric mean (90% CI) ratio: 1.50 (0.58 – 3.93)
  AUC24 geometric mean (90% CI) ratio: 0.77 (0.61 – 0.96)
[10]; [15]
  C0 geometric mean (90% CI) ratio: 1.30 (1.06 – 1.60)
  C24 geometric mean (90% CI) ratio: 1.09 (0.95 – 1.26)
  CL/F geometric mean (90% CI) ratio: 0.92 (0.81 – 1.05)
  Cmax geometric mean (90% CI) ratio: 1.13 (0.96 – 1.34)
  Cmin geometric mean (90% CI) ratio: 1.22(1.02 – 1.45)
  Vd/F geometric mean (90% CI) ratio: 0.36(0.22 – 0.58)
  AUC24 geometric mean (90% CI) ratio: 1.09 (0.96 – 1.23)
[10]; [16]
  C0 geometric mean (90% CI) ratio: 0.94 (0.59 – 1.50)
  C24 geometric mean (90% CI) ratio: 0.84 (0.57 – 1.23)
  CL/F geometric mean (90% CI) ratio: 1.26 (0.97 – 1.64)
  Cmax geometric mean (90% CI) ratio: 0.83 (0.68 – 1.01)
  Cmin geometric mean (90% CI) ratio: 1.11 (0.70 – 1.74)
  Vd/F geometric mean (90% CI) ratio: 1.42 (0.68 – 2.97)
  AUC24 geometric mean (90% CI) ratio: 0.80 (0.62 – 1.03)
[10]; female, human, plasma, oral, 25 mg, C24 (24 hour post-dose concentration), 25 mg once daily, second trimester, median (range)
  concentration at 24 h: 63 ng/mL
[10]; female, human, plasma, oral, 25 mg, 25 mg once daily, postpartum, median (range)
  Cmax: 134 ng/mL
[10]; [17]
  Cmax: 145 ng/mL
  Vd/F: 750 L
[10]; female, human, plasma, oral, 25 mg, 25 mg once daily, postpartum
  Tmax: 4 h
[10]; female, human, plasma, oral, 25 mg, 25 mg once daily, third trimester
  Tmax: 2 h
[10]; female, human, plasma, oral, 25 mg, 25 mg once daily, third trimester, median (range)
  Vd/F: 1210 L
[10]; human, plasma, oral, 25 mg, second trimester
  AUC: 12400 ng·h/mL
[10]; human, plasma, oral, 25 mg, third trimester
  AUC: 3600 ng·h/mL
[10]; postpartum
  Coefficient of variation (CV) for AUC: 60%
  Coefficient of variation (CV) for Cmax: 58%
  Coefficient of variation (CV) for Cmin: 71%
[10]; postpartum, 3 of 28
  Women below the AUC0–24 10th percentile target (880 ng*hr/mL): 11%
[10]; postpartum, 11 of 28
  Women with absorption lag (1 hour post-dose concentration less than pre-dose): 39%
[10]; second trimester
  C24 lower vs. postpartum: 30%
  Reduction of AUC compared to postpartum: 23%
[10]; second trimester, 1 of 15
  Women below the AUC0–24 10th percentile target (880 ng*hr/mL): 7%
[10]; second trimester, 9 of 18
  Women with absorption lag (1 hour post-dose concentration less than pre-dose): 50%
[10]; third trimester
  C24 lower vs. postpartum: 16%
  Reduction of drug exposure (AUC) compared to postpartum: 20%
[10]; third trimester, 2 of 28
  Women below the AUC0–24 10th percentile target (880 ng*hr/mL): 7%
[10]; third trimester, 13 of 30
  Women with absorption lag (1 hour post-dose concentration less than pre-dose): 43%

## O=C1Nc2ccc(Cl)cc2[C@@](C#CC2CC2)(C(F)(F)F)O1 [efavirenz]
[1]
  Clearance during pregnancy: increased

## CC(C)(C)NC(=O)[C@@H]1CN(Cc2cccnc2)CCN1C[C@@H](O)C[C@@H](Cc1ccccc1)C(=O)N[C@H]1c2ccccc2C[C@H]1O [indinavir]
[1]; in vivo
  AUC during pregnancy compared to postpartum: significant decreases

## CC(C)(C)NC(=O)[C@@H]1C[C@@H]2CCCC[C@@H]2CN1C[C@@H](O)[C@H](Cc1ccccc1)NC(=O)[C@H](CC(N)=O)NC(=O)c1ccc2ccccc2n1 [saquinavir]
[1]; in vivo
  AUC during pregnancy compared to postpartum: significant decreases

## CC(C)CN(C[C@@H](O)[C@H](Cc1ccccc1)NC(=O)O[C@H]1CO[C@H]2OCC[C@H]21)S(=O)(=O)c1ccc(N)cc1 [darunavir]
[1]; HIV protease inhibitors
  AUC during pregnancy compared to postpartum: significant decreases

## Cc1cc(C#N)cc(C)c1Oc1nc(Nc2ccc(C#N)cc2)nc(N)c1Br [etravirine]
[1]
  Exposure during pregnancy compared to postpartum: increased

## Cc1cccc(C)c1OCC(=O)N[C@@H](Cc1ccccc1)[C@@H](O)C[C@H](Cc1ccccc1)NC(=O)[C@H](C(C)C)N1CCCNC1=O [lopinavir]
[1]; in vivo
  AUC during pregnancy compared to postpartum: significant decreases

## Cc1ccnc2c1NC(=O)c1cccnc1N2C1CC1 [nevirapine]
[1]; in vivo
  AUC reduced during third trimester compared to postpartum: 20%
  Cmax reduced during third trimester compared to postpartum: 20%
  Cmin reduced during third trimester compared to postpartum: 20%

## Cc1c(O)cccc1C(=O)N[C@@H](CSc1ccccc1)[C@H](O)CN1C[C@H]2CCCC[C@H]2C[C@H]1C(=O)NC(C)(C)C [nelfinavir]
[1]; HIV protease inhibitors
  AUC during pregnancy compared to postpartum: significant decreases

## COC(=O)N[C@H](C(=O)N[C@@H](Cc1ccccc1)[C@@H](O)CN(Cc1ccc(-c2ccccn2)cc1)NC(=O)[C@@H](NC(=O)OC)C(C)(C)C)C(C)(C)C [atazanavir]
[1]; HIV protease inhibitors
  AUC during pregnancy compared to postpartum: significant decreases

From article PMC4911231 (Journal of acquired immune deficiency syndromes (1999), 2016)
